Measurements published in US20080287543A1, “Pharmaceutical composition comprising 5-methyl-2 (2'-chloro-6'-fluoroanillino) phen ylacetic acid” (priority 2003, published 2008).

Legend:
Assay type in all cases: physicochemical
[1] = Stability in 100% polyethylene glycol (PEG) 400 solution; conditions: 100% PEG 400, 50° C., in the dark, after 4 weeks
Excerpt: (§1) Thus, the ability to produce a shelf-stable parenteral formulation is unexpected.

[2] = Stability in 100% propylene glycol (PG) solution; conditions: 50° C., in the dark, after 4 weeks
Excerpt: as §1

Solubility in water = experiment: Solubility in water
Excerpt: as §1

| SMILES | degradation in a solution of 100% PEG 400 [1] | degradation in a solution of 100% PG [2] | solubility in water (Solubility in water) |
| --- | --- | --- | --- |
| Cc1ccc(Nc2c(F)cccc2Cl)c(CC(=O)[O-])c1.[K+] [Potassium salt of 5-methyl-2-(2′-chloro-6′-fluoroanilino)phenylacetic acid] | 5% | 7% |  |
| Cc1ccc(Nc2c(F)cccc2Cl)c(CC(=O)O)c1 [5-methyl-2-(2′-chloro-6′-fluoroanilino)phenylacetic acid] |  |  | relatively insoluble |
